According to patent publication US20150290265A1, “COMPOSITION FOR TREATING METABOLIC DISORDERS” (PIRAMAL ENTERPRISES LIMITED, priority 2012, published 2015):

What was measured:
[1] = High fat diet (HFD) induced body weight gain study in mice; assay type: in vivo, C57BL/6J mice; conditions: Mean ± S.E.M.
Experimental: Male C57BL/6J mice (in-house; Central Animal Facility, Piramal Healthcare Limited, Goregaon, Mumbai, Maharashtra, India) were acclimatized with HFD (60% Kcal, D12492, Research Diets, USA) for two weeks. […] Orlistat (Biocon, India) was used as the standard drug and was administered orally at a dose of 15 mg/kg body weight, twice daily. A separate group of ten mice was fed a low fat diet (LFD, 10% kcal, D12450B, Research Diet, USA) as a normal control. Vehicle was administered to the HFD and LFD control groups at dose of 10 mL/kg body weight. The treatments were continued for a period of sixty days. Body weight and feed intake were monitored daily. The % change in body weight (% increase in body weight from day 1) and the cumulative feed intake data was calculated. On day sixtyone, blood samples (˜200 μL/mice) were collected in heparinised (50 IU/mL) micro-centrifuge tubes under isoflurane anesthesia. Plasma was separated by centrifugation at 10000 rpm at 4° C. for estimation of various plasma biochemistry parameters. The biochemistry analysis was performed on BS-400 autoanalyzer (Mindray, China). […] All the data was analyzed for statistical significance by one-way ANOVA followed by Dunnet's post-hoc test and values of P<0.05 were considered as significant. […]

human DGAT-1 enzyme = target: T1, human DGAT-1 enzyme (Homo sapiens, UniProt O75907); experiment: hDGAT-1 inhibition assay (microsomes from Sf9 cells, [14C]oleoyl-CoA incorporation); assay type: biochemical; conditions: 50 μg/mL
T1 construct: host or cells: Sf9 insect cells (baculovirus, Bac-to-Bac); microsomal fraction
T1 sequence (O75907 1-488): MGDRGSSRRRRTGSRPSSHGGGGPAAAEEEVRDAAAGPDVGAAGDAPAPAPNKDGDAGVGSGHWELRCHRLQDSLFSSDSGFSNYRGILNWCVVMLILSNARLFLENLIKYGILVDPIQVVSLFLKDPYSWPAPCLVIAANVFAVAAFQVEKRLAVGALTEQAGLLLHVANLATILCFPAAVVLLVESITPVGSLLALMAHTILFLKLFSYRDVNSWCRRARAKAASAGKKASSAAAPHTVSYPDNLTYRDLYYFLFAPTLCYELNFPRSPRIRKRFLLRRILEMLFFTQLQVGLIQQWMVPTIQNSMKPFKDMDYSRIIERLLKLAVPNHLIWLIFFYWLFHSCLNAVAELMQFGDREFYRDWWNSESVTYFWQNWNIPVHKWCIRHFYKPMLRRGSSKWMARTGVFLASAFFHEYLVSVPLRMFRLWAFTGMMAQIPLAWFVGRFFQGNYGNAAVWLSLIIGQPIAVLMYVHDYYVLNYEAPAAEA
Experimental: The DGAT-1 assay was designed using human DGAT-1 enzyme over expressed in Sf9 cell-line as described in the reference, European Journal of Pharmacology, 650, 663-672, 2011, the disclosure of which is incorporated by reference for the teaching of the assay.
Enzyme was diluted to a working concentration of 1 mg/mL in hDGAT-1 assay buffer, 2.5 μL of the working enzyme stock was used in hDGAT-1 assay (final concentration 25 μg/mL).
The test samples were prepared as follows. […] The working stock was prepared in hDGAT-1 assay buffer. 10 μL of working stock was added into 100 μL of assay mixture to obtain the final concentration of extracts at 50 μg/mL.
60 μL of substrate mix (as described above) was added to a total assay volume of 100 μL. The reaction was started by adding 2.5 μg hDGAT-1 containing microsomal protein and was incubated at 37° C. for 10 min. The reaction was stopped by adding 300 μL of alkaline ethanol stop solution mix (AESSM). […] 250 μL of the upper heptane was added into 4 mL of scintillation fluid and measured using a liquid scintillation counter (Packard; 1600CA) as disintegration per min (dpm) counts. The percentage inhibition was calculated with respect to the vehicle.

SCD-1 enzyme = target: T2, SCD-1 enzyme (Rattus norvegicus, UniProt P07308); experiment: SCD-1 inhibition assay (rat liver microsomes, 3H2O release); assay type: biochemical; conditions: 50 μg/mL
T2 construct: Male Sprague-Dawley rats (150-175 g) were fasted for two days and then fed on low fat diet for three days to induce SCD-1 activity; from tissue; host or cells: liver microsomes of male Sprague-Dawley rats
T2 sequence (P07308 1-358): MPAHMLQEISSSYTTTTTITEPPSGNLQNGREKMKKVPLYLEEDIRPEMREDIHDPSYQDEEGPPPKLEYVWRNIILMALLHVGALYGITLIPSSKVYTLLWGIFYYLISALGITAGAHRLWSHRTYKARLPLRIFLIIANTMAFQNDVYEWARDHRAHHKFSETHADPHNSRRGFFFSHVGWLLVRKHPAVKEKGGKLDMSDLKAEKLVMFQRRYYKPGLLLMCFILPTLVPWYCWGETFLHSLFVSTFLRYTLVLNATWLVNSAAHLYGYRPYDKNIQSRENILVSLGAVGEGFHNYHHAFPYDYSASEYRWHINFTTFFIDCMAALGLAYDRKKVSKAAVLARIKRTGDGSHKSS
Experimental: The assay was carried out according to the method described in reference, European Journal of Pharmacology, 618, 28-36, 2009, the disclosure of which is incorporated by reference for the teaching of the assay.
The SCD-1 enzyme was prepared from rat liver microsomes as described in PCT Publication Application WO2008/074835A1, the disclosure of which is incorporated herein by reference for the teaching of the assay.
Male Sprague-Dawley rats (150-175 g) were fasted for two days and then fed on low fat diet for three days to induce SCD-1 activity. The rats were then sacrificed and their livers were removed and placed on ice. The livers were finely chopped with scissors and then homogenized using a Polytron homogenizer in a homogenization buffer (150 mM KCl, 250 mM sucrose, 50 mM tris-HCl, pH 7.5, 5 mM EDTA, and 1.5 mM reduced glutathione) at 4° C. The homogenate was centrifuged at 1500×g for 20 min at 4° C. […]
The microsomes (62.5 μg) were treated with the test sample for 15 min. […] The filtrate containing ^3H2O was transferred to scintillation vials containing 4 mL of scintillation fluid and the cpm counts were measured using a liquid scintillation counter. The % inhibition was calculated with reference to the vehicle control.
The dose response was determined at concentrations of 25 μg/mL, 50 μg/mL and 100 μg/mL by serially diluting stock solutions of Extract of Example 2.

With `CCCCCCCCCCC[C@@H](C[C@@H]1OC(=O)[C@H]1CCCCCC)OC(=O)[C@H](CC(C)C)NC=O` [Orlistat] the “Body weight (g, day 0)” value ([1]; day 0 (baseline)) was 26.4 ± 0.4 g and the “Body weight (g, day 60)” value ([1]; day 60, Extract 500 mg/kg orally once daily, Orlistat 15 mg/kg orally twice daily) was 30.9 ± 0.9 g.

In the case of `C[C@@H]1O[C@@H](Oc2cc3c(=O)oc4c(O)c(O)cc5c(=O)oc(c2O)c3c45)[C@H](O)[C@H](O)[C@H]1O` [The compound 1, Ellagic acid, 4-O-alpha-L-rhamnopyranoside], the “activity in the hDGAT-1 inhibition assay (conclusion)” value (human DGAT-1 enzyme) is reported as “active”, the inhibition at 50 µg/mL (human DGAT-1 enzyme; Table 1) is reported as 85% and the “activity in the SCD-1 inhibition assay (conclusion)” value (SCD-1 enzyme) is reported as “active”. It also gave an inhibition at 50 µg/mL (SCD-1 enzyme; Table 3) of 74.2%.
